Measured values from US20220152022A1.
“And” between values parts separate entries of the source, which are not always exact repeats. Equal entries are not always repeated. Structures can show the parent of a compound that is named as a salt.

Key:
Format in all cases: in vivo, human
[1] = system: Overweight and Obese Adults; test: Dose-ranging phase 1 clinical study (NCT02475317), multiple oral doses for 7 days; details: for treatment-emergent adverse events: all doses, 7 days; for Mean serum 7αC4: change from baseline to day 7, greatest change at maralixibat 50 mg BID; for Mean sBA levels: versus baseline, day 7
[2] = system: Children with Progressive Familial Intrahepatic Cholestasis; test: INDIGO phase 2 open-label efficacy and safety study of maralixibat
Excerpt: The HRQoL used was the […] QUALITY OF LIFE INVENTORY (PedsQL).

[3] = system: Participants with Primary Sclerosing Cholangitis (PSC); test: CAMEO 14-week single-arm open-label phase 2a proof-of-concept study
Experimental: Participants were adults aged 18-80 years with a diagnosis of PSC. PSC diagnosis included a documented history of alkaline phosphatase (ALP) levels greater than 1.5 times above the upper limit of normal, biliary obstruction, and histological findings consistent with PSC diagnosis (if previously biopsied). The study enrolled 27 adults.
Efficacy was assessed by measuring at baseline and throughout the study sBA concentration, serum 7αC4 concentration (a marker of de novo bile acid synthesis), serum aoutotaxin concentration, LDL-C concentration, serum total cholesterol concentration, serum liver enzyme concentrations, and pruritus severity. Pruritus severity was determined by calculating Adult Itch Reported Outcome (ITCHRO) weekly sum scores and average daily scores (mean score over a 7-day period). Participants self-reported the ITCHRO daily on a scale 0-10 (0=no pruritus; 10=most severe pruritus).
Outcomes were assessed in the overall study population and in subgroups of participants (A) with any pruritus at baseline or (B) with an ITCHRO average daily score ≥4 out of 10 at baseline. Efficacy endpoints were based on change from baseline to week 14 or early termination (ET) and were analyzed using paired t-tests or Wilcoxon signed rank tests.

[4] = system: Children with Alagille Syndrome; test: ICONIC phase 2b randomized placebo-controlled drug-withdrawal study with long-term extension
Experimental: Children aged 1-18 years with a diagnosis of ALGS and evidence of cholestasis were eligible to enroll in the ICONIC clinical study, see Tables 12-14. During a long-term extension, participants with sBA levels above the upper limit of normal and/or an ITCHRO(OBS) score >1.5 were eligible for the 400 μg/kg BID dose (all participants received the 400 μg/kg BID dose). Inclusion criteria for the ICONIC study included having cholestasis, which was defined as at least one of 1) sBA concentration (total sBA) >3× the upper limit of normal, 2) serum conjugated bilirubin concentration >1 mg/dL, 3) fat-soluble vitamin deficiency not otherwise explained, 4) serum gamma-glutamyl transferase concentration >3× the upper limit of normal, and 3) intractable pruritus explainable only by liver disease. Inclusion criteria also included having significant pruritus, which was defined as an average daily score of >2 on the ITCHRO(OBS) scale for 2 consecutive weeks (0=no pruritus; 4=most severe pruritus). Exclusion criteria included having surgically disrupted enterohepatic circulation, a liver transplant, decompensated cirrhosis, or having any liver disease other than ALGS.
sBA responders were defined as those patients achieving ≥50% reduction from baseline in sBA at week 12 or 18. ITCHRO responders were defined as those patients achieving at least a 1-point reduction from Baseline in weekly morning ITCHRO(OBS) score at week 12 or 18.
In the open label extension, the effect of higher doses was explored by increasing dosage to a maximum of 400 μg/kg BID in eligible participants.
Efficacy assessments were based on changes from baseline in sBA concentration, weekly average ITCHRO(OBS) scores (0, none; 4, most severe), CSS score (0, none; 4 most severe), and Clinician Xanthoma Scale score (0, none; 4, disabling). […] During the long-term extension, efficacy assessments were conducted every 12 weeks. Serum total cholesterol and serum 7αC4 concentration were also monitored during the ICONIC clinical study, among other measures.
sBA were measured using a fully validated liquid chromatography-electrospray ionization-mass electrospray (LC-ESI-MS) method using stable-isotope dilution analysis to measure serum concentrations of principal bile acids (cholic, chenodeoxycholic, ursodeoxycholic, deoxycholic acid, lithocholic, and their corresponding glycine and taurine conjugates). Serum samples were analyzed in the Division of Pathology and Laboratory Medicine, Cincinnati Children's Hospital Medical Center according to SOP #PATH.CMS.1033. Calibration standards of individual bile acids were in the range of 50-25,000 ng/mL and Quality Control samples were prepared at concentrations of 100, 500, 1000, 2500, and 20000 ng/mL. The intra- and inter-assay imprecision of the method for individual bile acids measured was within the accepted GLP quality assurance guidelines of <15% coefficient of variance for these QC samples. The lower limit of quantification of the assay was set at 100 ng/mL and the imprecision at this concentration was <20%. The limit of detection of the assay was 5 ng/mL. Total sBA is represented by the sum of the individual bile acid species measured.

CCCC[C@]1(CC)CS(=O)(=O)c2ccc(N(C)C)cc2[C@@H](c2cccc(NC(=O)N[C@@H]3O[C@H](COS(=O)(=O)O)[C@@H](O)[C@H](OCc4ccccc4)[C@H]3O)c2)[C@H]1O (stereo in doubt) [volixibat, (2R,3R,4S,5R,6R)-4-benzyloxy-6-{3-[3-((3 S,4R,5R)-3-butyl-7-dimethylamino-3-ethyl-4-hydroxy-1,1-dioxo-2,3,4,5-tetrahydro-1H-benzo[b]thiepin-5-yl)-phenyl]-ureido}-3,5-dihydroxy-tetrahydro-pyran-2-ylmethyl) hydrogen sulfate]
treatment-emergent adverse events [1]: All treatment-emergent adverse events were mild, and none were serious | Mean serum 7αC4 [1]: increased | Mean sBA levels [1]: not elevated

CCCCC1(CCCC)CS(=O)(=O)c2ccc(N(C)C)cc2[C@@H](c2ccc(OCc3ccc(C[N+]45CCN(CC4)CC5)cc3)cc2)[C@H]1O.[Cl-] [maralixibat]
multi-parameter response ([2]; all PFIC 1 patients and all patients harboring a truncating ABCB11 mutation): not multi-parameter responders | serum ALT, AST, and bilirubin concentrations over time ([2]; all low-dose responders, e.g. within 2-6 months of first administration): normalized or only mildly elevated | height Z-score ([2]; high dose responder, following treatment response on sBA): increase in height Z-score | Response ([2]; individual PFIC 2 participants, one line each, max dose 280 or 560 μg/kg/day (Table 6), No reponse [sic] / Rapid complete response / Good response / No response until 560 reached): Rapid (4×) and No (19×) and Good | cholestasis markers after dose increase ([2]; low-dose responder losing response in long-term extension, raised to 280 μg/kg BID at between 640 and 730 days): sBA concentration decreased, severity of pruritus decreased, serum 7αC4 concentration increased, and 7αC4:sBA ratio increased | growth (height Z-score change relative to baseline) ([2]; low-dose responders (FIG. 4)): improved growth relative to baseline | 7αC4 concentrations at 48 weeks ([2]; low-dose responders (range, 3-43)): 14 × baseline | multi-parameter responders ([2]; mild PFIC 2 patients, 280 μg/kg QD): 1 of 7 | responders only after higher dose (high-dose responder) ([2]; moderate PFIC 2 patients, 280 μg/kg twice daily): 1 of 12 | responders by week 48 ([2]; moderate PFIC 2 patients, 280 μg/kg/day): 5 of 12 | growth (height Z-score change relative to baseline) ([2]; non-responders (FIG. 4)): did not | 7αC4 concentrations at 48 weeks ([2]; non-responders (range, 0.5-6)): 1.8 × baseline | duration of maintained response ([2]; responders, long-term extension): for over a year and for up to or beyond 5 years | treatment-emergent adverse events [1]: All treatment-emergent adverse events were mild, and none were serious | Mean serum 7αC4 [1]: increased | Mean sBA levels [1]: not elevated | tolerability ([3]; adults with PSC, up to 10 mg/day, 14 weeks): well tolerated | Changes in serum total bilirubin, alanine aminotransferase, aspartate aminotransferase, and alkaline phosphatase concentrations ([3]; all participants): not statistically significant | participants with worsening of pruritus by >1 point ([3]; baseline to week 14): No participants | participants with ITCHRO average daily score improved by >1 point ([3]; count of all participants): 8 out of 27 | participants with ITCHRO average daily score improved by >3 points ([3]; count of all participants): 6 of 27 | Mean conjugated bilirubin levels, increase ([3]; overall population): 0.19 mg/dL | conjugated bilirubin levels ([3]; participants with ITCHRO daily score ≥0 at baseline (so in the source)): no significant change | autotaxin levels ([3]; participants with ITCHRO daily score ≥4 at baseline): significant reductions | weight Z-scores ([4]; 400 μg/kg QD then 400 μg/kg BID (FIGS. 35-36)): dose-dependent increase in weight Z-scores | Change in ItchRO from Baseline to Week 48 ([4]; ITCHRO(OBS) weekly morning average score, individual subjects (Table 18)): −0.12 and 0.49 and −0.45 and 0.00 and −1.86 (2×) and −1.71 (2×) and −1.00 (2×) and −1.29 and −1.67 and −1.14 and −1.03 and −2.50 and −2.71 and −3.50 and −0.17 and −1.43 and −0.83 | study days reported as minimal or no pruritus (ITCHRO(OBS)<1) ([4]; across participants, after 98 weeks): over 89% | Clinician xanthoma scale scores ([4]; all participants, by week 48 (p<0.01)): improved significantly | quality of life ([4]; core study and extension): improved quality of life | PedsQL Multidimensional Fatigue Scale scores ([4]; core study and extension (p<0.01)): Improvements were seen | tolerability ([4]; core study and extension, doses up to 800 μg/kg/day, up to 4 years): generally well tolerated | ItchRO(Obs) Weekly Morning Average Score, Change from Baseline to Week 48 ([4]; individual subjects, one line each (Table 19)): −1.86 (2×) and −1.71 (2×) and −1.00 (2×) and −1.29 and −1.67 and −1.14 and −1.03 and −1.43 | growth after dose increase ([4]; patients (N=15) given 400 μg/kg BID after 400 μg/kg QD for more than about 40 weeks): further increase in growth from baseline | sBA responders at Week 48 (N = 28), % ([4]; sBA Response Definition Normalization (<8.5 μmol/L)): (3.6%) | sBA responders at Week 48 (N = 28), % ([4]; sBA Response Definition ≥80% Reduction): (14.3%) | sBA responders at Week 48 (N = 28), % ([4]; sBA Response Definition ≥90% Reduction): (3.6%)
